Like-named read-outs stand apart in the source and are kept apart here.
Experiments:
Type in all cases: cell-based
human TAAR1 receptors = molecular target: T1, human TAAR1 receptors (Homo sapiens, UniProt Q96RJ0); experiment: TAAR1 Agonism Assay: cAMP HTRF assay for Gs coupled receptor TAAR1 (Euroscreen FAST-0987C); settings: CHO-K1 cells expressing human TAAR1, cAMP HTRF
T1 construct: host or cells: CHO-K1
T1 sequence (Q96RJ0 1-339): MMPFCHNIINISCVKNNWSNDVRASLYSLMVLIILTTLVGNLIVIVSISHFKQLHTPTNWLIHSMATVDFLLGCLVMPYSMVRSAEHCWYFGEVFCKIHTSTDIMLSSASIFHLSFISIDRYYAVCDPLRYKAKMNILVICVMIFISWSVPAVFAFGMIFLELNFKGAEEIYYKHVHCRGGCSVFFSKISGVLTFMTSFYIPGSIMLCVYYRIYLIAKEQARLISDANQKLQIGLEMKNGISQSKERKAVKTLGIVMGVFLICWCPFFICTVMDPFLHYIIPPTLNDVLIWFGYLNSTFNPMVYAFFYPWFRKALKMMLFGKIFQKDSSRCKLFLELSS
Summary of the method: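 cAMP accumulation detected by HTRF fluorescence ratio, reagents added in lysis buffer and incubated 1 h at about room temperature. Beforehand, cells (about 3,000 per well) sat with test compound at ten concentrations from 0.3 to 10,000 nM in duplicate for roughly 30 min at about room temperature; tyramine dose-response run alongside.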

human 5-HT7 receptor = molecular target: T2, human 5-HT7 receptor (Homo sapiens, UniProt P34969); experiment: 5HT7 Antagonism Assay (Euroscreen FAST-0499C), cAMP HTRF; settings: CHO-K1 cells expressing human 5-HT7, reference agonist at EC80, cAMP HTRF
T2 construct: host or cells: CHO-K1
T2 sequence (P34969 whole entry): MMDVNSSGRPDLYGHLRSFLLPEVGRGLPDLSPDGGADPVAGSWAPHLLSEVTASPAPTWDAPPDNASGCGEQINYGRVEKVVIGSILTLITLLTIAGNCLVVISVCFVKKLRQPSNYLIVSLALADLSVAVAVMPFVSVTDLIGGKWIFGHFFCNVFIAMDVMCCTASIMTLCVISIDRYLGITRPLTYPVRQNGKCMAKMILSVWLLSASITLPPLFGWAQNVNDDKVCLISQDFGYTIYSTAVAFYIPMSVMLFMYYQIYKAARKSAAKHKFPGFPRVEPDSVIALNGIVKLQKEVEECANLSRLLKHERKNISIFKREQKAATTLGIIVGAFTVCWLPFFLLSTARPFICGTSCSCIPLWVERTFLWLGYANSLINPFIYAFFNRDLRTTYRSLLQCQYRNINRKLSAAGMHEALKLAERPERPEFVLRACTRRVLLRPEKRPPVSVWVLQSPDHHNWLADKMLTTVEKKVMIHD
Description: 5HT7 Antagonism Assay Protocol (Euroscreen FAST-0499C)
CHO-K1 cells expressing the human 5-HT7 receptor, grown prior to the test in media without antibiotic, were detached by gentle flushing with PBS-EDTA (5 mM EDTA), recovered by centrifugation and resuspended in assay buffer (Krebs-Ringer HEPES buffer: 5 mM KCl, 1.25 mM MgSO4, 124 mM NaCl, 25 mM HEPES, 13.3 mM Glucose, 1.25 mM KH2PO4, 1.45 mM CaCl2), 0.5 g/l BSA, supplemented with 1 mM IBMX).
Dose response curves were performed in parallel with reference compounds (e.g., 5-carboxamidotryptamine (5-CT)).
For antagonist testing in a 384 well plate: 5 μl of cells (3000 cells) were mixed with 5 μl of a mix of test compound and reference agonist (for a final assay concentration corresponding to its EC80) diluted in assay buffer. The plates were then incubated for about 30 minutes at about room temperature. After addition of the lysis buffer containing cAMP-d2 and anti-cAMP cryptate detection reagents, plates were incubated for about 1 hour at about room temperature, and fluorescence ratios were measured according to the manufacturer's specifications (HTRF kit: cAMP Gs dynamic kit, Cisbio Bioassays, 62AM4PEJ).
Compounds were tested at the following nanomolar concentrations, in duplicate: 0.3 nM, 1 nM, 3 nM, 10 nM, 30 nM, 100 nM, 300 nM, 1,000 nM, 3,000 nM, and 10,000 nM.

human 5-HT2A receptor = molecular target: T3, human 5-HT2A receptor (Homo sapiens, UniProt P28223); experiment: 5HT2A Antagonism Assay (Euroscreen FAST-05051), IP-One HTRF
T3 construct: host or cells: CHO-K1
T3 sequence (P28223 whole entry): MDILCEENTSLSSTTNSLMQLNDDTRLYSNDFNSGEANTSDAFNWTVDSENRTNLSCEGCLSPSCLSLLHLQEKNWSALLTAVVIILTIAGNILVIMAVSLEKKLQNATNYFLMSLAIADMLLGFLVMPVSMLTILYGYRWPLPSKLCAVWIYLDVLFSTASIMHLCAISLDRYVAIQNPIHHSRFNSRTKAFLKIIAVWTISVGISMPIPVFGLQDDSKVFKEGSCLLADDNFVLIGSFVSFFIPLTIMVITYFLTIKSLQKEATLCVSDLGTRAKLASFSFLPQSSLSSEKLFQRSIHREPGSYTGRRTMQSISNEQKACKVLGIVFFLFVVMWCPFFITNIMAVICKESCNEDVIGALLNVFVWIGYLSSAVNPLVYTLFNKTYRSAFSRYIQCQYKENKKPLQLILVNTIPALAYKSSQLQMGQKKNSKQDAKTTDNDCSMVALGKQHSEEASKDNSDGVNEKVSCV
Description: 5HT2A Antagonism Assay Protocol (Euroscreen FAST-05051)
CHO-K1 cells expressing the human 5-HT2A receptor grown to mid-log phase in culture media without antibiotics, were detached with PBS-EDTA, centrifuged, and resuspended in the IP-One Gq kit (Cisbio Bioassays, 62IPAPEC) stimulation buffer.
For antagonist testing in a 384 well plate: 5 μl of cells (20,000 cells) were mixed with 5 μl of a mix of test compound and reference agonist (for a final assay concentration corresponding to its EC80) diluted in stimulation buffer. The plate was incubated for 60 minutes at 37° C. in a humidified atmosphere of 95% air with 5% CO2, then 5 μL of IP1-d2 and anti-IP1 cryptate detection reagents were added to each well, the plates were incubated for about 1 hour at about room temperature. Fluorescence ratios are measured according to the manufacturer's specification (IP-One Gq kit (Cisbio Bioassays, 62IPAPEC).
Dose response curves were performed in parallel with reference compounds (e.g., α-methyl-5-HT. Compounds were tested at the following nanomolar concentrations, in duplicate: 0.3 nM, 1 nM, 3 nM, 10 nM, 30 nM, 100 nM, 300 nM, 1,000 nM, 3,000 nM, and 10,000 nM

[1] = 5-HT2A (IC50), CHO-K1 cells expressing human 5-HT2A, reference agonist at EC80, IP-One
[2] = read-out: 5-HT2A (IC50), CHO-K1 cells expressing human 5-HT2A, reference agonist at EC80, IP-One

SMILES	EC50 (human TAAR1 receptors)	IC50 (human 5-HT7 receptor)	IC50 (human 5-HT2A receptor; [1])	IC50 (human 5-HT2A receptor; [2])
NCC1Cc2cccc(F)c2Oc2ccccc21 (single isomer, unassigned) [Compound 84, (R*)-(4-fluoro-10,11-dihydrodibenzo[b,f]oxepin-10-yl)methanamine]	< 1 µM	≥ 10 µM	> 10 µM	–
NCC1Cc2cccc(F)c2Oc2ccccc21 (single isomer, unassigned) [Compound 85, (S*)-(4-fluoro-10,11-dihydrodibenzo[b,f]oxepin-10-yl)methanamine]	< 1 µM	≥ 10 µM	1 to 10 µM	–
CNCC1Cc2cccc(F)c2Oc2ccccc21 (single isomer, unassigned) [Compound 86, (R*)-(4-fluoro-10,11-dihydrodibenzo[b,f]oxepin-10-yl)-N-methylmethanamine]	< 1 µM	1 to 10 µM	< 1 µM	–
CNCC1Cc2cccc(F)c2Oc2ccccc21 (single isomer, unassigned) [Compound 87, (S*)-(4-fluoro-10,11-dihydrodibenzo[b,f]oxepin-10-yl)-N-methylmethanamine]	< 1 µM	1 to 10 µM	–	< 1 µM
NCC1Cc2ccc(F)cc2Oc2ccccc21 (single isomer, unassigned) [Compound 89, (S*)-(3-fluoro-10,11-dihydrodibenzo[b,f]oxepin-10-yl)methanamine]	< 1 µM	≥ 10 µM	< 1 µM	–
CNCC1Cc2ccc(F)cc2Oc2ccccc21 (single isomer, unassigned) [Compound 90, (R*)-(3-fluoro-10,11-dihydrodibenzo[b,f]oxepin-10-yl)-N-methylmethanamine]	> 10 µM	1 to 10 µM	< 1 µM	–
CNCC1Cc2ccc(F)cc2Oc2ccccc21 (single isomer, unassigned) [Compound 91, (S*)-(3-fluoro-10,11-dihydrodibenzo[b,f]oxepin-10-yl)-N-methylmethanamine]	< 1 µM	< 1 µM	–	< 1 µM
NCC1Cc2ccccc2Oc2ccc(F)cc21 (single isomer, unassigned) [Compound 92, (R*)-(8-fluoro-10,11-dihydrodibenzo[b,f]oxepin-10-yl)methanamine]	< 1 µM	≥ 10 µM	< 1 µM	–
CNCC1Cc2ccccc2Oc2ccc(F)cc21 (single isomer, unassigned) [Compound 94, (R*)-(8-fluoro-10,11-dihydrodibenzo[b,f]oxepin-10-yl)-N-methylmethanamine]	< 1 µM	1 to 10 µM	< 1 µM	–
CNCC1Cc2ccccc2Oc2ccc(F)cc21 (single isomer, unassigned) [Compound 95, (S*)-(8-fluoro-10,11-dihydrodibenzo[b,f]oxepin-10-yl)-N-methylmethanamine]	1 to 10 µM	1 to 10 µM	–	< 1 µM
NCC1Cc2cc(F)ccc2Oc2ccccc21 (single isomer, unassigned) [Compound 96, (R*)-(2-fluoro-10,11-dihydrodibenzo[b,f]oxepin-10-yl)methanamine]	< 1 µM	≥ 10 µM	< 1 µM	–
CNCC1Cc2cc(F)ccc2Oc2ccccc21 (single isomer, unassigned) [Compound 98, (R*)-(2-fluoro-10,11-dihydrodibenzo[b,f]oxepin-10-yl)-N-methylmethanamine]	< 1 µM	1 to 10 µM	< 1 µM	–
NCC1Cc2ccccc2Oc2c(F)cccc21 (single isomer, unassigned) [Compound 100, (R*)-(6-fluoro-10,11-dihydrodibenzo[b,f]oxepin-10-yl)methanamine]	< 1 µM	≥ 10 µM	< 1 µM	–
NCC1Cc2ccccc2Oc2c(F)cccc21 (single isomer, unassigned) [Compound 101, (S*)-(6-fluoro-10,11-dihydrodibenzo[b,f]oxepin-10-yl)methanamine]	< 1 µM	≥ 10 µM	> 10 µM	–
CNCC1Cc2ccccc2Oc2c(F)cccc21 (single isomer, unassigned) [Compound 102, (R*)-(6-fluoro-10,11-dihydrodibenzo[b,f]oxepin-10-yl)-N-methylmethanamine]	< 1 µM	≥ 10 µM	< 1 µM	–
NCC1Cc2ccccc2Oc2cccc(F)c21 (single isomer, unassigned) [Compound 104, (R*)-(9-fluoro-10,11-dihydrodibenzo[b,f]oxepin-10-yl)methanamine]	< 1 µM	≥ 10 µM	1 to 10 µM	–
NCC1Cc2ccccc2Oc2cccc(F)c21 (single isomer, unassigned) [Compound 105, (S*)-(9-fluoro-10,11-dihydrodibenzo[b,f]oxepin-10-yl)methanamine]	1 to 10 µM	≥ 10 µM	> 10 µM	–
CNCC1Cc2ccccc2Oc2cccc(F)c21 (single isomer, unassigned) [Compound 106, (R*)-(9-fluoro-10,11-dihydrodibenzo[b,f]oxepin-10-yl)-N-methylmethanamine]	< 1 µM	≥ 10 µM	< 1 µM	–
CNCC1Cc2ccccc2Oc2cccc(F)c21 (single isomer, unassigned) [Compound 107, (S*)-(9-fluoro-10,11-dihydrodibenzo[b,f]oxepin-10-yl)-N-methylmethanamine]	> 10 µM	≥ 10 µM	1 to 10 µM	–
CCNCC1Cc2ccccc2Oc2cccnc21 (single isomer, unassigned) [Compound 109, (R*)-1-(10,11-dihydrobenzo-[6,7]oxepino[3,2-b]pyridin-11-yl)-N-ethylmethanamine]	< 1 µM	≥ 10 µM	1 to 10 µM	–
CN(C)CC1Cc2ccccc2Oc2cccnc21 (single isomer, unassigned) [Compound 111, (R*)-1-(10,11-dihydro-benzo[6,7]oxepino[3,2-b]pyridin-11-yl)-N,N-dimethylmethanamine]	< 1 µM	≥ 10 µM	1 to 10 µM	–
NCC1Cc2cc(Cl)ccc2Oc2cccnc21 (single isomer, unassigned) [Compound 120, (S*)-(8-chloro-10,11-dihydrobenzo[6,7]oxepino[3,2-b]pyridin-11-yl)methanamine]	< 1 µM	≥ 10 µM	1 to 10 µM	–
NCC1Cc2cc(Cl)ccc2Oc2cccnc21 (single isomer, unassigned) [Compound 121, (R*)-(8-chloro-10,11-dihydrobenzo[6,7]oxepino[3,2-b]pyridin-11-yl)methanamine]	< 1 µM	< 1 µM	< 1 µM	–
CNCC1Cc2cc(Cl)ccc2Oc2cccnc21 (single isomer, unassigned) [Compound 122, (S*)-(8-chloro-10,11-dihydrobenzo[6,7]oxepino[3,2-b]pyridin-11-yl)-N-methylmethanamine]	< 1 µM	1 to 10 µM	< 1 µM	–
CNCC1Cc2cc(Cl)ccc2Oc2cccnc21 (single isomer, unassigned) [Compound 123, (R*)-(8-chloro-10,11-dihydrobenzo[6,7]oxepino[3,2-b]pyridin-11-yl)-N-methylmethanamine]	< 1 µM	< 1 µM	–	< 1 µM
